Ends that are not written are not given here.

The test system of this assay is HeLa cells overexpressing mCherry-tagged KRAS G12V. Kind of assay: Cellular fluorescent imaging in HeLa cells overexpressing mCherry-tagged KRAS G12V. The assay is classed as cell-based, human. Particulars: 75 min after treatment with the FITC-labeled pept-in. How it is done:
FIG. 7 illustrates cellular co-localization between mCherry-labeled KRAS and FITC-labeled RAS-targeting molecules (‘pept-ins’) according to certain embodiments of the present invention.
Fluorescent cellular imaging was performed using HeLa cells that were transduced with lentiviral particles carrying a construct expressing KRAS G12V labeled N-terminally with mCherry. Cells were seeded in a black μClear® Cellstar® F-bottom 96-well plates (Greiner) in […] full growth medium. […] Next, cells were fixed, washed and counterstained with the nuclear dye NucBlue™ (containing Hoechst 33342). Images were captured on a Leica confocal microscope.
To complement the co-immunoprecipitation approach, we also used a cellular imaging approach to show target engagement. To this end, we generated a HeLa cell line overexpressing mCherry-tagged KRAS G12V and FITC-labelled versions of the RAS-targeting pept-ins.

In the case of “04-015-N032: FITC-labelled version of pept-in 04-015-N001 (KVVVGAVGKGSKVVVGAVGK; not fully specified (C-terminus); also: FITC-labelled, site not given here)”, the “association with mCherry-labelled KRAS (inclusion-like perinuclear structures)” value is “associates with mCherry-labelled KRAS”.

Values taken from patent publication US20230090247A1, “MOLECULES TARGETING RAS PROTEIN” (AELIN THERAPEUTICS, priority 2020, published 2023).
